The values below come from US11590133B2, “Methods and compositions for treatment of BRAF mutant cancers” (MEMORIAL SLOAN KETTERING CANCER CENTER, priority 2016, dated 2023).

The subject of one experiment is ERK. The following applies: cited from earlier work.
Experiment [1] deals with BRAFV600E-mutant lung cancer patient-derived xenografts (PDX). In words: ERK inhibitor monotherapy of lung cancer PDX, tumor growth. The note with it: SCH984 75 mpk; FIG. 1B. It counts as in vivo, mice. The source says:
These were established as described^38,39, in accordance with the Memorial Sloan Kettering Cancer Center Institutional Review Board. Informed consent was obtained in all cases. All animal studies were done in accordance with protocols approved by the MSKCC Animal Care and Use Committee. Melanoma models were generated previously40. Patient derived tissue (biopsy or surgical resection) or pleural fluid was used to establish the lung cancer models in Table I. For biopsy or resection specimens, the tumor sample was minced under aseptic conditions, vigorously washed in 1×PBS, passed through a 60-μm filter, centrifuged, and then re-suspended in 500 μL of Matrigel (BD Biosciences) at 4° C. For pleural effusions, the fluid was centrifuged in order to isolate the cellular fraction and washed several times in cold PBS. Cells were then injected subcutaneously in the flanks of NSG mice and monitored for tumor growth. […]
Nu/nu athymic or NSG mice were obtained from the Harlan Laboratories and maintained in compliance with IACUC guidelines. […] Doubling times were calculated by fitting tumor volumes into exponential growth curves and determining their rate constants in Prism. […] Statistically significant differences in rate constants were determined by using the extra-sum-of-squares F test (with p<0.05) embedded in Prism. […]

Structures are written as SMILES.

In the case of `CS[C@@]1(C(=O)Nc2ccc3[nH]nc(-c4ccc(OC(C)C)nc4)c3c2)CCN(CC(=O)N2CC=C(c3ccc(-c4ncn(C)n4)cc3)CC2)C1` [SCH984], the “effect on ERK kinase activity and ERK phosphorylation by MEK” value with ERK (ATP-competitive inhibitor) was “inhibits the kinase activity of ERK and prevents its phosphorylation by MEK”. Also, the “preference for phosphorylation state of ERK” value with ERK was “preferentially targets unphosphorylated ERK”. In experiment [1], the “PDX tested in which growth was inhibited” value is given as 3/4 and the duration of response result was “several weeks”.
